Assay results reported in patent publication US20210371483A1, “Composition for Inactivating Spores by Means of Antimicrobial Peptides” (Robert Bosch Gesellschaft Fur Medizinische Fruschung mbH, priority 2016, published 2021).
Entries after “also recorded” stand apart in the source; their conditions may differ. Where no end group is shown, it is not given here.

What was measured:
Type in all cases: cell-based, Clostridium difficile
C. difficile spores [1] = experiment: Incubation of C. difficile spore suspension with antimicrobial peptides, plating and counting of germinated spores; conditions: spore suspension (at least 70% spores) incubated 60 minutes with peptide; plated on Columbia blood agar, anaerobic at least 4 days
Protocol: (§1) The effects of antimicrobial peptides on C. difficile spores were investigated by first enriching a bacterial suspension with spores so that at least 70% spores were present. The spore suspension was incubated for 60 minutes with various defensins (HBD1, HBD2, HBD3) and the cathelicidin LL37 (recombinant defensins: Peptanova Sandhausen, HBD1 order No. 4337; HBD2; 4338, HBD3 4382/recombinant LL37: Innovagen Lund Sweden, order No. SP-LL-37-1). Thereafter, aliquots of the samples were plated out on Columbia blood agar and incubated anaerobically for at least 4 days. The germinated spores in an untreated control and the preparations containing antimicrobial peptides were counted.

C. difficile spores [2] = experiment: Spore germination experiment repeated with wash-out of the peptides after incubation; conditions: peptides washed out at end of incubation, medium free of peptides
Protocol: as §1
In order to able to establish with certainty whether either germinating bacteria are rapidly killed by the presence of antimicrobial peptides in the medium or the spores are in fact prevented from germinating, the experiment was repeated, but at the end of the incubation time, the peptides were washed out and the medium was free of peptides.

C. difficile spores [3] = experiment: Spore germination after incubation, wash-out and heat killing of residual vegetative cells (FIG. 1); conditions: for decrease in germinating spores: incubation, wash-out, heat 61° C., 30 min, as a function of peptide concentration
Protocol: as §1
In further experiments, the inventers wanted to make the unambiguous assignment that resultant bacterial colonies can be attributed with certainty to the germinated spores and not to the steady growth of residual vegetative cells. To this end, incubation and wash-out were followed by killing the residual vegetative cells using heat (61° C., 30 min). This heat treatment kills only the vegetative cells, but not the spores.

C. difficile spores [4] = experiment: Electron microscopy of C. difficile spores incubated with gold-labeled HBD3 peptides (FIGS. 2 and 3)

| Substance | germinated spores in comparison with the controls (C. difficile spores [1]) | inhibitory effect on spore germination despite wash-out (C. difficile spores [2]) | difference between the effect of LL37 and HBD3 (C. difficile spores [3]; at larger concentrations (10 μg/mL)) | difference between the effect of LL37 and HBD3 (C. difficile spores [3]; at low concentrations) | decrease in germinating spores (C. difficile spores [3]) | structural destruction of the spores (C. difficile spores [4]) | penetration into the spores (C. difficile spores [4]; gold-labeled HBD3 peptides) | number of germinating spores (C. difficile spores [3]; 2.5 μg/mL peptide, after wash-out and heat treatment) | efficacy compared with the other effective peptide (C. difficile spores [3]; in lower concentrations, after wash-out and heat treatment) |
| --- | --- | --- | --- | --- | --- | --- | --- | --- | --- |
| cathelicidin LL-37 [LL37] | significantly fewer germinated spores | maintained | hardly noticeable | distinct difference | concentration-dependent decrease in germinating spores | – | – | – | – |
| human beta-defensin-3 (GIINTLQKYYCRVRGGRCAVLSCLPKEEQIGKCSTRGRKCCRRKK; ends and bridges not checked; cysteine pairing not given here; UniProt P81534 23-67, looked up) [HBD3, Human beta-defensin 3, protein composed of 45 amino acids, net charge +11; recombinant, Peptanova order No. 4382] | significantly fewer germinated spores | maintained | – | – | concentration-dependent decrease in germinating spores | destroyed structurally; also recorded: destroys parts of the spore structure | able to penetrate into the spores; also recorded: penetrates into the exosporium | greatly lowering the number of germinating spores | somewhat higher efficacy |
